# Publication PMC10566475, “A cell-active cyclic peptide targeting the Nrf2/Keap1 protein–protein interaction” (Chemical Science, 2023)
# *1 amine or outer side, *2 acyl side, *3 side chain or, on linkers, in order; H or OH if unused. Where a SMILES comes first, the peptide text is derived from it. Bridges are numbered along the chain shown (N, C = ends). X1 = CN(CC(=O)O)c1nc(CC[*:1])cc(CC[*:2])n1; mXylylene = c1cc(C[*:1])cc(C[*:2])c1; CH2COCH2 = O=C(C[*:1])C[*:2]; CH2 = C([*:1])[*:2]
# Tests used:
# [1] = target: T1, human Keap1 Kelch domain (A321-T609) (Homo sapiens, UniProt Q14145); test: Surface plasmon resonance (SPR) direct binding assay, immobilised Keap1 Kelch domain; settings: Table 1; for Kd: geometric mean ± sd of at least 3 independent repeats unless stated, 20°C; for koff / kon: single cycle kinetics, 1:1 Langmuir model
# T1 construct: human Keap1 Kelch domain (A321-T609) fused with N-terminal 6x His-tag; 6xHis (N); made in house
# Source text: (§1) We based the design of our Nrf2-like cyclic peptides around the amino acid sequence of the ETGE motif (namely 12-mer ^73[…]^84L) and SAR studies reported in the literature.[9,10,12,14] The […] motif is known to adopt a beta-turn conformation upon binding to Keap1. Residues Q73-Q75 and L85 stabilise the bound conformation, L76-D77 and E79-G81 bind deep into the pocket with E79 and E82 forming electrostatic interactions with Keap1 and D77 and T80 stabilising the beta-turn via H-bonds with E78 not contributing to the binding. […] The ability of the cyclic peptides to bind to the Kelch domain of Keap1 was evaluated using surface plasma resonance (SPR), where the Kelch domain is immobilised onto a SPR sensor chip. Additionally, we assessed the ability of the peptides to inhibit the PPI between Nrf2 and the Kelch domain of Keap1 using a time-resolved FRET (TR-FRET) assay. Here, the IC50 for inhibition of the interaction between the human Keap1 Kelch domain and an Nrf2-ETGE peptide is measured.
# (§2) Surface Plasmon Resonance (SPR)
# (§3) Peptide affinities to the Kelch domain of Keap1 is determined in a direct binding assay using 8K surface plasmon resonance (SPR) biosensor (Cytiva) at 20°C. Immobilization of Keap1 Kelch domain on a CM5 sensor chip (Cytiva) is performed using standard amine coupling procedure. The surface is washed with 10mM NaOH, 1M NaCl before activated with EDC/NHS (Cytiva), followed by immobilization of human Keap1 Kelch domain (A321-T609) fused with N-terminal 6x His-tag7 (in 10 mM MES, pH=6.4).
# (§4) Finally, the surface is deactivated by Ethanolamine. Immobilization levels are typically 5000-6000 RU.
# (§5) The reference spot is treated as described, omitting the injection of Keap1. Compound concentration series are injected over the immobilized protein in increasing concentrations using single cycle kinetics (SCK) in running buffer (10 mM HEPES, 150 mM NaCl, 0.05% Tween20, 1 mM TCEP, pH 7.4). A 1:1 Langmuir interaction model is fitted to the experimental traces, enabling determination of kon, koff and […]
# (§6) In the time-resolved Förster resonance energy transfer (TR-FRET) assay8 the IC50 of inhibitors which […]
# (§7) are determined. The TR-FRET is measured between a Tb-labelled mAb (Anti—6-His, Tb cryptate Gold, CisBio 61H12TLB) that binds to Keap 1 Kelch domain and d2-labelled SA-biotin-peptide.
# (§8) The assay was performed in 384-well white low-volume, medium binding plates (Greiner Bio One, Austria) in 20 mM HEPES pH 7.5, 150 mM NaCl, 2 mM GSH (Sigma-Aldrich, USA),1mM EDTA (Sigma-Aldrich, USA), and 0.01% Pluronic F127 (MilliporeSigma, USA), with a final reaction volume of 10 µL.
# (§9) To determine the ability of synthesized peptide to inhibit PPI between the Keap1 Kelch domain and Nrf2, 1nM purified human Keap1 Kelch domain (A321-T609) fused with N-terminal 6x His-tag, 5 nM biotinylated Nrf2 peptide ([…], Genescript, USA), d2-labeled streptavidin (Revvity, USA), and […] anti-His monoclonal antibody tagged with terbium cryptate (Revvity, USA), were incubated in the presence of varying concentrations of investigated peptides for 3 h at room […]
# (§10) 7 Li X, Zhang D, Hannink M, Beamer LJ. Crystallization and initial crystallographic analysis of the Kelch domain from human Keap1. Acta
# (§11) 8 S. Lee, D. Ali Abed, L. J. Beamer, L. Hu, Development of a Homogeneous Time-Resolved Fluorescence Resonance Energy Transfer (TR-
# [2] = target: T2, interaction between the human Keap1 Kelch domain and an Nrf2-ETGE peptide (Homo sapiens, UniProt Q14145); test: Keap1-Nrf2 TR-FRET (HTRF) assay; assay type: binding; settings: Table 1; geometric mean ± sd of at least 3 independent repeats unless stated; read-out: TR-FRET IC50
# T2 construct: 1nM purified human Keap1 Kelch domain (A321-T609) fused with N-terminal 6x His-tag; made in house
# Source text: as §1, §2, §3, §4, §5, §6, §7, §8, §9, §10, §11
# Following the incubation, the PHERAstar FSX […] microplate reader was used to measure the acceptor and donor emissions at 665 nm and 620 nm, respectively. The acceptor/donor ratio was used to calculate relative energy transfer. Data was normalized by two-point normalization using neutral and inhibitor controls (neutral control: DMSO, inhibitor control: 0.1nM 2-[[4-[carboxymethyl-(4-methoxyphenyl)sulfonylamino]naphthale n-1-yl]-(4-methoxyphenyl)sulfonylamino]acetic acid; […]
# parameter logistic fit and IC50 values were calculated using Genedata screener software (Genedata, […]
# T1 sequence (Q14145 321-609): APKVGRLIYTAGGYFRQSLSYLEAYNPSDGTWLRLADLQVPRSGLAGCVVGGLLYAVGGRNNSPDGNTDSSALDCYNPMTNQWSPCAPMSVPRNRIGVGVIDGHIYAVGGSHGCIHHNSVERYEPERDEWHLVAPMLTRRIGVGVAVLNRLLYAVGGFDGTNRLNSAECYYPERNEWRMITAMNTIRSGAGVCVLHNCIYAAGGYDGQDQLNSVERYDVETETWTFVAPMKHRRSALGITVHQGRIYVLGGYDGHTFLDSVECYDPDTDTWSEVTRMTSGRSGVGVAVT
# T2 sequence (Q14145 321-609): as above
compound,measurement,setting,value
CC(=O)N[C@H]1CSCSC[C@@H](C(=O)N[C@@H](CC(C)C)C(N)=O)NC(=O)[C@H](CCC(=O)O)NC(=O)CNC(=O)[C@H]([C@@H](C)O)NC(=O)[C@H](CCC(=O)O)NC(=O)[C@@H]2CCCN2C(=O)[C@H](CC(=O)O)NC(=O)[C@H](CC(C)C)NC(=O)[C@H](CCC(N)=O)NC1=O [Peptide P1-A] (Ac-CQLDPETGECL-NH2; linker 1-10 via CH2),Kd,[1],19 ± 1.4 nM
same,koff,[1],0.0073 s⁻¹
same,kon,[1],480000 M⁻¹ s⁻¹
same,IC50,[2],2.9 ± 1.7 nM
CC(=O)N[C@H]1CSCC(=O)CSC[C@@H](C(=O)N[C@@H](CC(C)C)C(N)=O)NC(=O)[C@H](CCC(=O)O)NC(=O)CNC(=O)[C@H]([C@@H](C)O)NC(=O)[C@H](CCC(=O)O)NC(=O)[C@@H]2CCCN2C(=O)[C@H](CC(=O)O)NC(=O)[C@H](CC(C)C)NC(=O)[C@H](CCC(N)=O)NC1=O [Peptide P1-B] (Ac-CQLDPETGECL-NH2; linker 1-10 via CH2COCH2),Kd,[1],27 ± 1.3 nM
same,koff,[1],0.0087 s⁻¹
same,kon,[1],410000 M⁻¹ s⁻¹
same,IC50,[2],4.4 ± 1.4 nM
CC(=O)N[C@H]1CSCc2cccc(c2)CSC[C@@H](C(=O)N[C@@H](CC(C)C)C(N)=O)NC(=O)[C@H](CCC(=O)O)NC(=O)CNC(=O)[C@H]([C@@H](C)O)NC(=O)[C@H](CCC(=O)O)NC(=O)[C@@H]2CCCN2C(=O)[C@H](CC(=O)O)NC(=O)[C@H](CC(C)C)NC(=O)[C@H](CCC(N)=O)NC1=O [Peptide P1-C] (Ac-CQLDPETGECL-NH2; linker 1-10 via mXylylene),Kd,[1],17 ± 1.2 nM
same,koff,[1],0.0078 s⁻¹
same,kon,[1],470000 M⁻¹ s⁻¹
same,IC50,[2],2.1 nM
CC(=O)N[C@H]1CSCCc2cc(nc(N(C)CC(=O)O)n2)CCSC[C@@H](C(=O)N[C@@H](CC(C)C)C(N)=O)NC(=O)[C@H](CCC(=O)O)NC(=O)CNC(=O)[C@H]([C@@H](C)O)NC(=O)[C@H](CCC(=O)O)NC(=O)[C@@H]2CCCN2C(=O)[C@H](CC(=O)O)NC(=O)[C@H](CC(C)C)NC(=O)[C@H](CCC(N)=O)NC1=O [Peptide P1-D] (Ac-CQLDPETGECL-NH2; linker 1-10 via X1),Kd,[1],25 ± 1.3 nM
same,koff,[1],0.0047 s⁻¹
same,kon,[1],200000 M⁻¹ s⁻¹
same,IC50,[2],2.9 ± 1.4 nM
CC(=O)N[C@@H](CS)C(=O)N[C@@H](CCC(N)=O)C(=O)N[C@@H](CC(C)C)C(=O)N[C@@H](CC(=O)O)C(=O)N1CCC[C@H]1C(=O)N[C@@H](CCC(=O)O)C(=O)N[C@H](C(=O)NCC(=O)N[C@@H](CCC(=O)O)C(=O)N[C@@H](CS)C(=O)N[C@@H](CC(C)C)C(N)=O)[C@@H](C)O [Peptide P1] (Ac-CQLDPETGECL-NH2),Kd,[1],20 ± 1.2 nM
same,koff,[1],0.0014 s⁻¹
same,kon,[1],86000 M⁻¹ s⁻¹
same,IC50,[2],4.9 ± 1.1 nM
CC(=O)N[C@@H](CC(C)C)C(=O)N[C@@H](CCC(N)=O)C(=O)N[C@H]1CSCSC[C@@H](C(=O)N[C@@H](CC(C)C)C(N)=O)NC(=O)[C@H](CCC(=O)O)NC(=O)CNC(=O)[C@H]([C@@H](C)O)NC(=O)[C@H](CCC(=O)O)NC(=O)[C@@H]2CCCN2C(=O)[C@H](CC(=O)O)NC1=O [Peptide P2-A] (Ac-LQCDPETGECL-NH2; linker 3-10 via CH2),Kd,[1],70 ± 1 nM
same,koff,[1],0.015 s⁻¹
same,kon,[1],210000 M⁻¹ s⁻¹
same,IC50,[2],8.3 ± 1.1 nM
CC(=O)N[C@@H](CC(C)C)C(=O)N[C@@H](CCC(N)=O)C(=O)N[C@H]1CSCC(=O)CSC[C@@H](C(=O)N[C@@H](CC(C)C)C(N)=O)NC(=O)[C@H](CCC(=O)O)NC(=O)CNC(=O)[C@H]([C@@H](C)O)NC(=O)[C@H](CCC(=O)O)NC(=O)[C@@H]2CCCN2C(=O)[C@H](CC(=O)O)NC1=O [Peptide P2-B] (Ac-LQCDPETGECL-NH2; linker 3-10 via CH2COCH2),Kd,[1],97 ± 1.4 nM
same,koff,[1],0.028 s⁻¹
same,kon,[1],350000 M⁻¹ s⁻¹
same,IC50,[2],9.8 ± 1.2 nM
